“And” between values parts separate entries of the source, which are not always exact repeats. Identical values can stand only once. Like-named read-outs stand apart in the source and are kept apart here.
Assays:
[1] = Experimental rotational energy barrier (thermal racemization, chiral HPLC); type: physicochemical; conditions: 135 °C in xylenes, Eyring equation
Description: (aR)-6 and (aS)-6 were readily separable from one another and racemic iso -6 through the use of a polysaccharide-based chiral column (Diacel IA column) fitted to an automated medium-pressure liquid chromatography unit (Biotage Isolera Prime). Racemization was observable after heating a solution of either enantiopure (aR)- or (aS)-6 at 135 °C in xylenes over a few hours, and the rate of enantiomerization was extrapolated using the Eyring equation (ΔG ^‡ = 31.2 ± 0.3 kcal/mol). (aR)- and (aS )-iso-6 were separable in an analogous fashion using a chiral IC polysaccharide column. […] Thus, we can project that the rotational energy barrier is […] 37 kcal/mol. However, a computationally determined rotational barrier for iso -6 was 33.5 kcal/mol, which is roughly 3 kcal/mol more than that calculated for 6. One potential explanation for this notable difference in configurational stability is the greater double bond character of the methyl-bearing C^4–C^5 carbon of iso -6 in comparison to the C^5–C^6 in 6, as this would both shorten and rigidify this steric-bearing bond (see Scheme A/B for details). […] Studies have previously described differences in rotational barriers of DAAC (2) and its analogous isomer that, while less dramatic, are consistent with this trend (ΔG ^‡ = 22.1 vs 23.4 kcal/mol). […]
IV. Experimental Profiling of Dihedral Angles
Rotational Energy Barrier Determination. A small spatula tip (~0.2 mg) of either (aR)-6 (aka, (aR)-MT-MTC) or (aS)-6 (aka, (aS)-MT-MTC) was diluted in 2 mL o-xylenes in a large vial containing a stir bar. The solution was heated to 135 °C open to air (temperature set to 135 °C, but fluxuated between 134 and 138 °C).
~100 µL aliquots were extracted from solution using a syringe fitted with a long disposable needle at various time intervals and diluted into automated sample vials containing 500 µL CH2Cl2 to rapidly cool. These samples were monitored on Agilent with an analytical HPLC IA column, using 0 – 40% iPrOH in Hexanes gradient over 30 minutes at a flow rate of 0.5 mL/min, and a pressure of roughly 5 bar). Samples eluted approximately 20 minutes into run, with (aR)-6 eluting first, followed by (aS)-6. Three separate runs were carried out, two of which monitored racemization of (aS)-6, and one of which monitored racemization of (aR)- […]
Integration of the HPLC traces were used to determine enantiomeric excess by calculating the difference between the two enantiomers and dividing that by the sum of the two enantiomers, and then multiplying that […]
provided a slope (corresponding to kracemization), and dividing this number […] providing kenantiomerization (or kent in equation below), with units inverse seconds. A summary of data follows (Table S5), and representative chromatograms illustrated in section VI.

U251 = tested on: U251; parameters: method as in NCI-60 database; conditions: U251 ref NCI-60 database, cited from earlier work
HOP-18 = tested on: HOP-18; parameters: method as in NCI-60 database; conditions: HOP-18 ref NCI-60 database; cited from earlier work
TK-10 = tested on: TK-10; parameters: method as in NCI-60 database; conditions: TK-10 ref NCI-60 database, cited from earlier work
DMS 114 = tested on: DMS 114; parameters: method as in NCI-60 database; conditions: DMS 114 ref NCI-60 database, cited from earlier work
SF-295 = tested on: SF-295; parameters: method as in NCI-60 database; conditions: SF-295 ref NCI-60 database, cited from earlier work
SK-MEL-28 = tested on: SK-MEL-28; parameters: method as in NCI-60 database; conditions: SK-MEL-28 ref NCI-60 database, cited from earlier work
RXF 393 = tested on: RXF 393; parameters: method as in NCI-60 database; conditions: RXF 393 ref NCI-60 database, cited from earlier work
K-562 = tested on: K-562; parameters: method as in NCI-60 database; conditions: K-562 ref NCI-60 database, cited from earlier work
CCRF-CEM = tested on: CCRF-CEM; parameters: method as in NCI-60 database; conditions: CCRF-CEM ref NCI-60 database, cited from earlier work
HCT-116 = tested on: HCT-116; parameters: method as in NCI-60 database; conditions: HCT-116 ref NCI-60 database, cited from earlier work
DMS 273 = tested on: DMS 273; parameters: method as in NCI-60 database; conditions: DMS 273 ref NCI-60 database, cited from earlier work

COc1cc(C)c(-c2ccc(OC)c(=O)cc2C)c(OC)c1OC (single isomer, unassigned) [(aR)-6]
ΔG‡ of enantiomerization, experimental [1]: 31.2 ± 0.3 kcal/mol

COc1cc2c(c(OC)c1OC)-c1ccc(OC)c(=O)cc1[C@@H](NC(C)=O)CC2 [Colchicine, (−)-Colchicine]
GI50 (U251): 30 nM
Log10GI50 (U251): -7.53 Molar
Log10GI50 (U251; listed as 757/1): -7.38 Molar
Log10LC50 (U251; listed as 757/1): > -4.00 Molar
Log10TGI (U251; listed as 757/1): > -4.00 Molar
Log10GI50 (U251; listed as 757/9): -7.47 Molar
Log10LC50 (U251; listed as 757/21): -4.31 Molar
Log10TGI (U251; listed as 757/21): -6.89 Molar and -6.80 Molar
Log10GI50 (HOP-18): > -4.00 Molar
Log10LC50 (HOP-18): > -4.00 Molar
Log10TGI (HOP-18): > -4.00 Molar
GI50 (TK-10): > 100000 nM
Log10GI50 (TK-10): > -4 Molar
Log10LC50 (TK-10): > -4.00 Molar
Log10TGI (TK-10): > -4.00 Molar
Log10GI50 (TK-10; listed as 757/1): > -4.00 Molar
Log10GI50 (TK-10; listed as 757/9): -7.50 Molar
Log10GI50 (TK-10; listed as 757/21): -4.66 Molar
Log10LC50 (DMS 114): > -4.00 Molar
Log10GI50 (DMS 114; listed as 757/1): -4.75 Molar
Log10GI50 (DMS 114; listed as 757/21): < -8.00 Molar
Log10TGI (DMS 114; listed as 757/21): -7.73 Molar and -7.65 Molar
Log10GI50 (SF-295; listed as 757/1): < -8.00 Molar and -7.70 Molar
Log10LC50 (SF-295; listed as 757/1): -4.51 Molar
Log10GI50 (SF-295; listed as 757/9): -7.68 Molar and -7.69 Molar
Log10TGI (SF-295; listed as 757/9): -7.30 Molar
Log10GI50 (SF-295; listed as 757/21): -7.88 Molar and -7.77 Molar
Log10LC50 (SF-295; listed as 757/21): > -4.00 Molar
Log10TGI (SF-295; listed as 757/21): -7.39 Molar and -7.37 Molar
Log10GI50 (SK-MEL-28; listed as 757/1): -7.02 Molar
Log10LC50 (SK-MEL-28; listed as 757/9): -4.44 Molar
Log10TGI (SK-MEL-28; listed as 757/9): -4.95 Molar
Log10LC50 (SK-MEL-28; listed as 757/21): > -4.00 Molar
Log10TGI (SK-MEL-28; listed as 757/21): > -4.00 Molar
GI50 (RXF 393): < 10 nM
Log10GI50 (RXF 393): < -8 Molar
Log10LC50 (RXF 393): > -4.00 Molar
Log10GI50 (RXF 393; listed as 757/1): < -8.00 Molar
Log10TGI (RXF 393; listed as 757/1): > -4.00 Molar
Log10GI50 (RXF 393; listed as 757/9): -7.93 Molar
Log10GI50 (RXF 393; listed as 757/21): -7.83 Molar and -7.85 Molar
GI50 (K-562): 20 nM
Log10GI50 (K-562): -7.79 Molar
Log10LC50 (K-562): > -4.00 Molar
Log10TGI (K-562): > -4.00 Molar
Log10GI50 (K-562; listed as 757/1): -7.47 Molar
Log10GI50 (K-562; listed as 757/21): < -8.00 Molar and -7.84 Molar and -7.79 Molar
GI50 (CCRF-CEM): 20 nM
Log10GI50 (CCRF-CEM): -7.82 Molar
Log10GI50 (CCRF-CEM; listed as 757/1): -7.39 Molar
Log10LC50 (CCRF-CEM; listed as 757/9): < -8.00 Molar
Log10TGI (CCRF-CEM; listed as 757/9): < -8.00 Molar
Log10GI50 (CCRF-CEM; listed as 757/21): < -8.00 Molar and -7.93 Molar and -7.82 Molar
Log10LC50 (CCRF-CEM; listed as 757/21): > -4.00 Molar
Log10TGI (CCRF-CEM; listed as 757/21): > -4.00 Molar
GI50 (HCT-116): 30 nM
Log10GI50 (HCT-116): -7.49 Molar
Log10LC50 (HCT-116): > -4.00 Molar
Log10GI50 (HCT-116; listed as 757/1): -7.41 Molar
Log10TGI (HCT-116; listed as 757/1): > -4.00 Molar and -4.23 Molar
Log10GI50 (HCT-116; listed as 757/9): -7.79 Molar
Log10LC50 (DMS 273): > -4.00 Molar
Log10TGI (DMS 273): > -4.00 Molar
Log10GI50 (DMS 273; listed as 757/1): -7.51 Molar
Log10GI50 (DMS 273; listed as 757/21): < -8.00 Molar and -7.87 Molar

Source: paper PMC12150326 (The Journal of Organic Chemistry, 2025)
